From patent US11613525B2 (CTXT PTY LIMITED, priority 2018, dated 2023) come the findings set out here.

The term ΔTm denotes the shift of the melting midpoint relative to a reference. Broadly, the EC50 is the concentration at which the effect is half-maximal.

One test has as its target human STING (HAQ) (Homo sapiens, UniProt Q86WV6, G230A/H232R/R293Q). The experiment in a line: biochemical. The test is classed as binding. Conditions: for ΔTm at 100 µM: read-out: DSF huSTING (HAQ) ΔTm (° C.). As for the experimental part: (§1) DSF monitors thermal unfolding of protein in the presence of a fluorescent dye and is typically performed using a real-time PCR instrument. The temperature at which a protein unfolds is measured by an increase in the fluorescence of a dye with affinity for hydrophobic parts of the protein that are gradually exposed during unfolding. The fluorescence of the dye is quenched in aqueous environments, but when the dye associates with hydrophobic sites on the unfolded protein, its fluorescence increases. The fluorescence intensity is plotted as a function of the temperature, generating a sigmoidal curve that can be described by a two-state transition. The inflection point of the transition curve (Tm) is calculated using simple equations such as that of Boltzman.
(§2) Sealed plates were then placed into a Bio-Rad CFX96/C1000 thermocycler and FRET scanning mode (λ^excitation of 490 nm and reads at λ^emission of 570 nm) was used to measure fluorescence intensity. […] The melting point (Tm) obtained for STING protein alone was subtracted from Tm obtained for protein incubated with ligand to generate ΔTm values listed in the table below.
(§3) These additional compounds were tested as described above, however the protein concentration was 2 μM.

Another test concerns the target huSTING (HAQ) (Homo sapiens (Human), UniProt Q86WV6, G230A/H232R/R293Q/R71H). The experiment in a line: THP-1 reporter cell line assay, THP-1 STING Lucia ISG cells. The format is cell-based. The note with it: THP-1 STING Lucia ISG cells, read-out: Cellular EC50 huSTING (HAQ).
Test [1] has as its target T1, huSTING (WT) (Homo sapiens (Human), UniProt Q86WV6, H232R). Briefly: THP-1 reporter cell line assay, THP-1-Dual KI-hSTING-R232 cells. The format is cell-based. Conditions: read-out: Cellular EC50 huSTING (WT).
Target sequence in this assay (Q86WV6 whole entry H232R): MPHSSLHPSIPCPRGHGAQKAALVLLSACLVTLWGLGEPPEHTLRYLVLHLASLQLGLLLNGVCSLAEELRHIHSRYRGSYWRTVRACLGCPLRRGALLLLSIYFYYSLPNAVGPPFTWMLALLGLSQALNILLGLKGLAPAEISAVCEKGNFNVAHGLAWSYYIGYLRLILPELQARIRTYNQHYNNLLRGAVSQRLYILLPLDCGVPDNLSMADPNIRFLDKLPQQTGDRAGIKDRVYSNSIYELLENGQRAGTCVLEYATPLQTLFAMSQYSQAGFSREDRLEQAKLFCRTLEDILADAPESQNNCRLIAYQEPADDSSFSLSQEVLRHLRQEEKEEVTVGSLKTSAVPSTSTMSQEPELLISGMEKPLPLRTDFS
The target in test [2] is T1, huSTING (WT). Briefly: Differential scanning fluorimetry (DSF), huSTING (WT). The test is classed as binding. How it is done: as §1, §2, §3
Target sequence in this assay (Q86WV6 other isoform, or with tags, fused parts or gaps, stated change not applied): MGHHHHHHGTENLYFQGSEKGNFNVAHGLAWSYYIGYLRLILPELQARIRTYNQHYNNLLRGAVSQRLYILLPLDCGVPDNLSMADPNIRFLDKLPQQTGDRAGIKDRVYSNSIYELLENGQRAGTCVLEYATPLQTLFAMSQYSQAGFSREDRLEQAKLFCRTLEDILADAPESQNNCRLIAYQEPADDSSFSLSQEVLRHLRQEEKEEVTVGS
(In general: In DSF a fluorescence change marks the thermal transition of the protein.)

Setting [3] is: modified method, top concentration 40 μM, pin tool, EnVision.

Where a name gives a salt, the structure may show the parent alone. Read-outs that look alike come from different tables or passages of the source.

human STING (HAQ), sequence (Q86WV6 whole entry G230A/H232R/R293Q, looked up): as the sequence (Q86WV6 whole entry H232R) above, with G230A, R293Q counted along it
huSTING (HAQ), sequence (Q86WV6 whole entry R71H/G230A/H232R/R293Q): as the sequence (Q86WV6 whole entry H232R) above, with R71H, G230A, R293Q counted along it

Consider `CCOC(=O)c1sc2cccc(F)c2c1COc1c(F)cc(C(N)=O)cc1F` [Example 2, Ethyl 3-((4-carbamoyl-2,6-difluorophenoxy)methyl)-4-fluorobenzo[b]thiophene-2-carboxylate], for which the ΔTm at 100 µM on human STING (HAQ) came to 1.44 °C. The EC50 on huSTING (HAQ) (24 h, top concentration 50 μM) was 2070 nM; on huSTING (WT) [1], above 50000 nM.

`CC(C)OC(=O)c1sc2cccc(F)c2c1COc1ccc(C(N)=O)cc1` [Example 4, Isopropyl 3-((4-carbamoylphenoxy)methyl)-4-fluorobenzo[b]thiophene-2-carboxylate]: the ΔTm at 100 µM on human STING (HAQ) was 0.13 °C. The EC50 at huSTING (HAQ) (24 h, top concentration 50 μM) is 2580 nM; on huSTING (WT) [1], above 50000 nM.

For `CCOC(=O)c1sc2cccc(Cl)c2c1COc1ccc(C(N)=O)cc1` [Example 7, Ethyl 3-((4-carbamoylphenoxy)methyl)-4-chlorobenzo[b]thiophene-2-carboxylate], on human STING (HAQ), the ΔTm at 100 µM amounted to 0.26 °C. The concentration giving a half-maximal response (EC50) was 705 nM on huSTING (HAQ) (24 h, top concentration 50 μM) and 8940 nM on huSTING (WT) [1].

For `NC(=O)c1ccc(OCc2c(C(=O)O)sc3cccc(Cl)c23)cc1` [Example 8, 3-((4-Carbamoylphenoxy)methyl)-4-chlorobenzo[b]thiophene-2-carboxylic acid], the “DSF huSTING (HAQ) ΔTm (° C.)” value on human STING (HAQ) (1 μM protein, compound at 100 μM) was found to be 13.96 °C.

Regarding `CC(C)(C)C(=O)OCOC(=O)c1sc2cccc(Cl)c2c1COc1ccc(C(N)=O)cc1` [Example 74, (Pivaloyloxy)methyl 3-((4-carbamoylphenoxy)methyl)-4-chlorobenzo[b]thiophene-2-carboxylate], the thermal shift (ΔTm) at 100 µM on huSTING (WT) [2] (1 μM protein, compound at 100 μM, read-out: DSF huSTING (WT) ΔTm (° C.)) was -4.22 °C. Also, the EC50 at huSTING (HAQ) (24 h, top concentration 50 μM) worked out at 1050 nM; at huSTING (WT) [1], 2470 nM.

Take `NC(=O)c1cc(F)c(OCc2c(C(=O)O)sc3cccc(Cl)c23)c(CO)c1` [Example 111, 3-((4-Carbamoyl-2-fluoro-6-(hydroxymethyl)phenoxy)methyl)-4-chlorobenzo[b]thiophene-2-carboxylic acid]: at huSTING (WT) [2] (compound 100 μM, protein concentration 2 μM), the “DSF huSTING (WT) ΔTm (° C.)” value amounted to 10.88 °C. Also, the 50% effective concentration (EC50) was determined as 16200 nM on huSTING (HAQ) (setting [3]) and 17200 nM on huSTING (WT) [1].

Regarding `CCOC(=O)c1sc2c(CO)ccc(Cl)c2c1COc1c(F)cc(C(N)=O)cc1F` [Example 145, Ethyl 3-((4-carbamoyl-2,6-difluorophenoxy)methyl)-4-chloro-7-(hydroxymethyl)benzo[b]thiophene-2-carboxylate], the EC50 was found to be 746 nM at huSTING (HAQ) (setting [3]) and 3840 nM on huSTING (WT) [1].

Consider `CCOC(=O)c1sc2c(COC)ccc(Cl)c2c1COc1c(F)cc(C(N)=O)cc1F` [Example 146, Ethyl 3-((4-carbamoyl-2,6-difluorophenoxy)methyl)-4-chloro-7-(methoxymethyl)benzo[b]thiophene-2-carboxylate], for which the EC50 at huSTING (HAQ) (setting [3]) came to 41 nM; on huSTING (WT) [1], 2150 nM.

Consider `CCOC(=O)c1sc2c(O)ccc(Cl)c2c1COc1c(F)cc(C(N)=O)cc1F` [Example 147, Ethyl 3-((4-carbamoyl-2,6-difluorophenoxy)methyl)-4-chloro-7-hydroxybenzo[b]thiophene-2-carboxylate], for which the EC50 at huSTING (HAQ) (setting [3]) was found to be 65 nM; at huSTING (WT) [1], 1620 nM.

In the case of `CCOC(=O)c1sc2c(OC)ccc(Cl)c2c1COc1c(F)cc(C(N)=O)cc1F` [Example 149, Ethyl 3-((4-carbamoyl-2,6-difluorophenoxy)methyl)-4-chloro-7-methoxybenzo[b]thiophene-2-carboxylate], the concentration giving a half-maximal response (EC50) at huSTING (HAQ) (setting [3]) was 613 nM; at huSTING (WT) [1] it was 797 nM.

`CCOC(=O)c1sc2cccc(Cl)c2c1COc1ccc(C(N)=O)c(COC)c1` [Example 150, Ethyl 3-((4-carbamoyl-3-(methoxymethyl)phenoxy)methyl)-4-chlorobenzo[b]thiophene-2-carboxylate]: the half-maximal effective concentration (EC50) at huSTING (HAQ) (setting [3]) is 550 nM; at huSTING (WT) [1], 489 nM.

As to `CCOC(=O)c1sc2cccc(Cl)c2c1COc1ccc(C(N)=O)c(-c2cn[nH]c2)c1` [Example 151, Ethyl 3-((4-carbamoyl-3-(1H-pyrazol-4-yl)phenoxy)methyl)-4-chlorobenzo[b]thiophene-2-carboxylate], the 50% effective concentration (EC50) was 1820 nM at huSTING (HAQ) (setting [3]) and 3460 nM at huSTING (WT) [1].

Regarding `CC(C)[C@H](N)C(=O)OCOC(=O)c1sc2cccc(Cl)c2c1COc1c(F)cc(C(N)=O)cc1F` [Example 152, ((L-Valyl)oxy)methyl 3-((4-carbamoyl-2,6-difluorophenoxy)methyl)-4-chlorobenzo[b]thiophene-2-carboxylate trifluoroacetate salt], the results for the half-maximal effective concentration (EC50) at huSTING (HAQ) (setting [3]) and on huSTING (WT) [1] were 967 nM and 53700 nM, respectively.

For the compound `CCOC(=O)c1sc2c(C#N)ccc(Cl)c2c1COc1c(F)cc(C(N)=O)cc1F` [Example 153, Ethyl 3-((4-carbamoyl-2,6-difluorophenoxy)methyl)-4-chloro-7-cyanobenzo[b]thiophene-2-carboxylate], the concentration for a half-maximal effect (EC50) was 129 nM at huSTING (HAQ) (setting [3]) and 207 nM on huSTING (WT) [1].

`COc1cccc2sc(C(=O)OC(C)C)c(COc3ccc(C(N)=O)cc3)c12` [Example 154, Isopropyl 3-((4-carbamoylphenoxy)methyl)-4-methoxybenzo[b]thiophene-2-carboxylate]: the EC50 at huSTING (HAQ) (setting [3]) amounted to 448 nM; at huSTING (WT) [1] it was 2050 nM.

As to `COc1cccc2sc(C(=O)OC3CCCC3)c(COc3ccc(C(N)=O)cc3)c12` [Example 155, Cyclopentyl 3-((4-carbamoylphenoxy)methyl)-4-methoxybenzo[b]thiophene-2-carboxylate], the EC50 was 230 nM at huSTING (HAQ) (setting [3]) and 3820 nM at huSTING (WT) [1].

Take `COc1cccc2sc(C(=O)OCc3ccccc3)c(COc3ccc(C(N)=O)cc3)c12` [Example 156, Benzyl 3-((4-carbamoylphenoxy)methyl)-4-methoxybenzo[b]thiophene-2-carboxylate]: the EC50 on huSTING (HAQ) (setting [3]) amounted to 628 nM; on huSTING (WT) [1], 4510 nM.

With `COc1cccc2sc(C(=O)OCCN3CCOCC3)c(COc3ccc(C(N)=O)cc3)c12` [Example 157, 2-Morpholinoethyl 3-((4-carbamoylphenoxy)methyl)-4-methoxybenzo[b]thiophene-2-carboxylate], the EC50 at huSTING (HAQ) (setting [3]) amounted to 373 nM; at huSTING (WT) [1], 2030 nM.

For `COC(=O)N1CCC(OC(=O)c2sc3cccc(Cl)c3c2COc2c(F)cc(C(N)=O)cc2F)CC1` [Example 163, Methyl 4-((3-((4-carbamoyl-2,6-difluorophenoxy)methyl)-4-chlorobenzo[b]thiophene-2-carbonyl)oxy)piperidine-1-carboxylate], the EC50 stood at 62 nM at huSTING (HAQ) (setting [3]) and 1560 nM on huSTING (WT) [1].

Regarding `CN1CC(OC(=O)c2sc3cccc(Cl)c3c2COc2c(F)cc(C(N)=O)cc2F)C1` [Example 164, 1-Methylazetidin-3-yl 3-((4-carbamoyl-2,6-difluorophenoxy)methyl)-4-chlorobenzo[b]thiophene-2-carboxylate], the EC50 on huSTING (HAQ) (setting [3]) worked out at 27 nM; at huSTING (WT) [1], 249 nM.

Consider `CCOC(=O)c1sc2cccc(OC)c2c1COc1c(F)cc(C(N)=O)cc1F` [Example 165, Ethyl 3-((4-carbamoyl-2,6-difluorophenoxy)methyl)-4-methoxybenzo[b]thiophene-2-carboxylate], for which the EC50 came to 127 nM at huSTING (HAQ) (setting [3]) and 6150 nM on huSTING (WT) [1].

On to `NC(=O)c1ccc(OCc2c(C(=O)NCc3ccccc3)sc3cccc(Br)c23)cc1` [Example 166, N-Benzyl-4-bromo-3-((4-carbamoylphenoxy)methyl)benzo[b]thiophene-2-carboxamide], for which the EC50 came to 9950 nM at huSTING (HAQ) (setting [3]) and 28900 nM at huSTING (WT) [1].

For `C=Cc1cc(OCc2c(C(=O)OCC)sc3cccc(Cl)c23)ccc1C(N)=O` [Example 168, Ethyl 3-((4-carbamoyl-3-vinylphenoxy)methyl)-4-chlorobenzo[b]thiophene-2-carboxylate], the EC50 on huSTING (HAQ) (setting [3]) is 7440 nM; at huSTING (WT) [1] it was above 40000 nM.

On to `CCOC(=O)c1sc2cncc(Cl)c2c1COc1c(F)cc(C(N)=O)cc1F` [Example 170, Ethyl 3-((4-carbamoyl-2,6-difluorophenoxy)methyl)-4-chlorothieno[2,3-c]pyridine-2-carboxylate], for which the EC50 on huSTING (HAQ) (setting [3]) was 189 nM; on huSTING (WT) [1] it was 450 nM.

Regarding `CC(C)(C)C(=O)OCOC(=O)c1sc2cccc(Cl)c2c1COc1c(F)cc(C(N)=O)cc1F` [Example 173, (Pivaloyloxy)methyl 3-((4-carbamoyl-2,6-difluorophenoxy)methyl)-4-chlorobenzo[b]thiophene-2-carboxylate], the EC50 was 55 nM on huSTING (HAQ) (setting [3]) and 208 nM on huSTING (WT) [1].

In the case of `Cc1ccc2sc(C(=O)OCOC(=O)C(C)(C)C)c(COc3ccc(C(N)=O)cc3)c2c1Cl` [Example 174, (Pivaloyloxy)methyl 3-((4-carbamoylphenoxy)methyl)-4-chloro-5-methylbenzo[b]thiophene-2-carboxylate], the 50% effective concentration (EC50) is 4720 nM at huSTING (HAQ) (setting [3]) and 25600 nM at huSTING (WT) [1].
